According to patent US10317405B2, “Methods of detecting Akt3 and administering Ax1 inhibitor” (BERGENBIO ASA, priority 2012, dated 2019):

What was measured:
[1] = system: Akt3; assay: Quantification of nuclear Akt3 immunofluorescence in mammary epithelial cells (HMEC); type: cell-based, human; settings: 600 nM BGB324 (Axl TKI), 1 uM imatinib (cKit TKI), versus vehicle (DMSO), *P<0.05
Description: Culturing of MDA-MB-231 cells was as described in Example 3. Primary human mammary epithelial cells (HMEC) were isolated as described (Garbe J C, Pepin F, Pelissier F A, Sputova K, Fridriksdottir A J, Guo D E, Villadsen R, Park M, Petersen O W, Borowsky A D, Stampfer M R, Labarge M A. Accumulation of multipotent progenitors with a basal differentiation bias during aging of human mammary epithelia. Cancer Res. 2012 Jul. 15; 72(14):3687-701) Localization of Akt3 (anti-Akt3-FITC, top panels) in MDA-MB-231 and primary human mammary epithelial cells (HMEC) as in Example 17. Nucleus was stained by DAPI (lower panels). Bar: 50 micron

[2] = system: Akt; assay: Immunoblot of Akt activation (pAkt) in transduced MCF10A cells treated with Akt inhibitor; type: cell-based, human; settings: inhibitor 10 μM, 12 hours
Procedure: (§1) MCF10A cells were cultured and transduced with retroviral constructs expressing myrAkt1, MyrAkt3 or Slug as described in FIGS. 1 and 3. The cells were treated with Akt inhibitors LY294002 (10 μM, Cell Signaling Technology, Cat. #9901) and Akt VIII (10 μM, Merck, Cat. #124018) for 12 hours as indicated. Cells were then either visualized at indicated magnification by phase-contrast microscopy, or seeded for invasive growth in 3D Matrigel as described in Example 3.
(§2) MCF10A cells were cultured and transduced with retroviral constructs expressing myrAkt1, MyrAkt3 or Slug as described in FIGS. 1 and 3. The cells were treated with Akt inhibitor as described in FIG. 6. SDS/PAGE, immunoblotting and antibodies as described in Examples 1 and 4.

[3] = system: MCF10A cells; assay: Immunoblot of EMT markers (N-cadherin, vimentin, E-cadherin) in transduced MCF10A cells treated with Akt inhibitor; type: cell-based, human; settings: inhibitor 10 μM, 12 hours
Procedure: as §1, §2

[4] = system: MCF10A cells; assay: Mesenchymal phenotype in 2D growth and invasive growth in 3D Matrigel of transduced MCF10A cells treated with Akt inhibitors; type: cell-based, human; settings: inhibitor 10 μM, 12 hours
Procedure: as §1

[5] = system: Akt3; assay: SureFire assay detecting activated (phosphorylated) Akt3 in cells; type: cell-based; settings: 10 nM insulin for 10 minutes
Procedure: A SureFire assay was used to specifically detect activated (phosphorylated) Akt3 in WM115, MCF7 and LNCaP cells. Briefly cells were lysated, and antibodies recognizing phosphorylated Akt (p473) and Akt3 were coupled to acceptor and donor beads as described by the manufacturer (PerkinElmer). Cells were either unstimulated or stimulated with 10 nM insulin for 10 minutes to activate Akt.

Nc1nc(Nc2ccc3c(c2)CC[C@@H](N2CCCC2)CC3)nn1-c1cc2c(nn1)-c1ccccc1CCC2 [BGB324, 1-(6,7-dihydro-5H-benzo[6,7]cyclohepta[1,2-c]pyridazin-3-yl)-N3-((7-(S)-pyrrolidin-1-yl)-6,7,8,9-tetrahydro-5H-benzo[7]annulene-2-yl)-1H-1,2,4-triazole-3,5-diamine]
Akt3 nuclear localization [1]: inhibit

O=c1[nH]c2ccccc2n1C1CCN(Cc2ccc(-c3nc4cc5nc[nH]c5cc4nc3-c3ccccc3)cc2)CC1 [AKT VIII]
Akt activation (pAkt) [2]: fully inhibit | mesenchymal marker N-cadherin expression [3]: significant reduction | mesenchymal marker vimentin expression [3]: significant reduction | re-expression of the epithelial marker E-cadherin [3]: Neither inhibitor led to re-expression | reversal of the mesenchymal phenotype / inhibition of EMT [3]: partially reverse | mesenchymal phenotype induced by Akt3 ([4]; MCF10A cells expressing MyrAkt3): inhibit | mesenchymal/invasive phenotype induced by Slug in 2D and 3D growth ([4]; MCF10A cells expressing Slug, 2D culture and 3D Matrigel): inhibit

insulin: stimulus used to activate Akt in the SureFire assay
Akt3 activity (phosphorylation) signal ([5]; LNCaP prostate cells): no signal | Akt3 activity (phosphorylation) signal ([5]; MCF7 breast epithelial cells): no signal | Akt3 activity (phosphorylation) ([5]; WM115 melanoma cells): significantly induce
